Consider 1 compound from patent US20180028516A1, “METHODS AND DEVICES FOR THE TREATMENT OF OCULAR DISEASES IN HUMAN SUBJECTS” (CLEARSIDE BIOMEDICAL, INC., priority 2012, published 2018).

Data set [1] relates to LPS-induced acute posterior uveitis. The experiment in a line: Aqueous and vitreous humor inflammatory cell counts and protein concentration (Example 13). It counts as in vivo, domestic weanling pigs. On the procedure: Pigs were euthanized on study day 3 after clinical scoring, OCT, ERG, and wide-field ocular fundus photography was completed. After euthanasia with an overdose of intravenous barbiturate, both eyes were removed, Aqueous humor (All) was aspirated and a 1 mL sample of vitreous humor (VH) was collected from each eye immediately after euthanasia. The globe was then fixed in Davidson's solution for 24 hours, followed by alcohol. Central, saggital sections of each globe, including the optic nerve, were stained with hematoxylin and eosin and examined by light microscopy. Two pathology-trained observers, masked to the study groups, graded degree of inflammatory infiltrate of the ocular anterior and posterior segments. The grading scale for the anterior and posterior ocular segment used was as follows: 0=no evidence of cellular infiltrate; 1=a few cells infiltrated (mild)−focal; 2=a few cells infiltrated (mild)−diffuse; 3=moderate number of cells infiltrated; and 4=high amount of cellular infiltrate.
After aspiration from the eyes, AH and VH were immediately placed on ice, transferred to the laboratory, then frozen at −80° C. until processing. Samples where thawed at room temperature, vortexed, and total cell counts were performed with a hemocytometer. Total protein concentration was measured using the […] (Pierce BCA Protein Assay Kit, Thermo Scientific Pierce, Rockford, Ill.).
Differences were considered significant at P<0.05.

A short description of data set [2]: Intraocular pressure after SCS TA (Example 9). It counts as in vivo, New Zealand White rabbit. The note with it: 3.2 or 5.2 mg TA SCS. The method, then:
In this study, the ocular tolerability and toxicokinetics of suprachoroidal administration of triamcinolone acetonide (TA) using a microneedle in a GLP study in the New Zealand White rabbit.
On Day 0, New Zealand White (NZW) rabbits were administered a single bilateral supraehoroidal injection of vehicle, 3.2 mg (80 μL) or 5.2 mg (130 μL) of TA (Triesence®, Alcoa labs) using a 33 g 750 μm microneedle. Clinical observations, slit lamp biomicroscopy with McDonald-Shadduck scoring, intraocular pressure assessment (IOP), electroretinography (ERG), and systemic exposure were assessed up to 26 weeks post-dose. Animals were sacrificed on Day 1, Week 13, and Week 26 for macroscopic observations, ocular toxicokinetics, and ocular histopathology.

A short description of data set [3]: Safety endpoints (mortality, body weights, ocular observations, IOP) in the rabbit uveitis study (Example 11). It counts as in vivo, New Zealand White rabbits. On the procedure:
In this study, the effects of pretreatment with suprachoroidal or intravitreal triamcinolone acetonide (TA) in a subretinal endotoxin-induced model of posterior segment uveitis in New Zealand White rabbits was evaluated.
On Day 1, female rabbits (4 eyes/group) received a single unilateral injection of vehicle or 4 mg TA (Triesence®, 40 mg/mL suspension, Alcon Labs) into the suprachoroidal space (SCS) using a 33 g 750 μm microneedle, or a 4 mg TA IVT injection using a standard 30 g needle. On Day 6, each animal received a single unilateral subretinal injection of lipopolysaccharide (LPS, 20-30 μL, 203 μg/g of 1% sodium hylauronate) to induce ocular inflammation in the treated eye. Animals were monitored for 22 days following dose administration. Endpoints included body weights, ocular observations, slit lamp biomicroscopy with McDonald-Shadduck scoring and photography, indirect ophthalmoscopy, fundus photography, intraocular pressure (IOP), and histopathology. A summary of the study design is shown below, in Table 6.

Regarding `CC1(C)O[C@@H]2C[C@H]3[C@@H]4CCC5=CC(=O)C=C[C@]5(C)[C@@]4(F)[C@@H](O)C[C@]3(C)[C@]2(C(=O)CO)O1` [TA, triamcinolone acetonide], in data set [1] (Group 3: low dose TA SCS), the “Mean AH cell counts compared with Groups 1, 5 or 6” value is reported as “not significantly different”; the “Mean VH cell count compared with Group 1 and Group 4” value is given as “significantly higher”. For the same compound, in data set [1] (Group 4: high dose TA SCS), the “Mean AH cell counts compared with Groups 1, 5 or 6” value was “not significantly different”; the “mean VH cell counts compared with Group 1, the untreated control” value is “not significantly different”; the “mean vitreous humor protein concentrations compared with Groups 3, 5 and 6” value was “significantly lower”. In addition, in data set [1] (Group 5: low dose TA IVT), the “Mean AH cell counts compared with Group 1” value is “significantly higher”; the “Mean VH cell count compared with Group 1 and Group 4” value was “significantly higher”. Moreover, the “Mean AH cell counts compared with Group 1” value in data set [1] (Group 6: high dose TA IVT) is recorded as “significantly higher”. Moreover, the “mean aqueous humor protein concentration, differences among the groups” value in data set [1] (all groups) is given as “no significant differences”. In addition, the “effect on IOP” value in data set [2] is on record as “No effect”. For the same compound, the “IOP after SCS TA administration” value in data set [3] (4 mg TA SCS) is “no significant increase”. Further, the “effects on mortality, body weights, or ocular observations” value in data set [3] (4 mg TA SCS or IVT) is “no test article- or administration-related effects”.
